Test results from PMC9898036, “VIP152 is a selective CDK9 inhibitor with pre-clinical in vitro and in vivo efficacy in chronic lymphocytic leukemia” (Leukemia, 2022).

Assays:
Type in all cases: binding
VRK2 = VRK2 (Homo sapiens, UniProt Q86Y07); assay: KINOMEscan: VRK2; settings: 100 nM, read-out: Percent Control
MST1R = MST1R (Homo sapiens, UniProt Q04912); assay: KINOMEscan: MST1R; settings: 1000 nM, read-out: Percent Control
GRK7 = GRK7 (Homo sapiens, UniProt Q8WTQ7); assay: KINOMEscan: GRK7; settings: 1000 nM, read-out: Percent Control
PFPK5(P.falciparum) = PFPK5(P.falciparum) (Plasmodium falciparum, UniProt P61075); assay: DiscoverX KINOMEscan kinase profiling: PFPK5(P.falciparum); settings: PFPK5(P.falciparum) (Entrez MAL13P1.279); 100 nM; read-out: Percent Control
Adrenergic α1A = Adrenergic α1A (Rattus norvegicus, UniProt P43140); assay: Eurofins Diversity Panel; settings: Conc. 10 μM
STK35 = STK35 (Homo sapiens, UniProt Q8TDR2); assay: KINOMEscan: STK35; settings: 100 nM, read-out: Percent Control
Opiate κ(OP2, KOP) = Opiate κ(OP2, KOP) (Homo sapiens, UniProt P41145); assay: Eurofins Diversity Panel; settings: hum, Conc. 10 μM
ALK(C1156Y) = ALK(C1156Y) (Homo sapiens, UniProt Q9UM73, C1156Y); assay: KINOMEscan: ALK(C1156Y); settings: 1000 nM, read-out: Percent Control
EGFR = EGFR (Homo sapiens, UniProt P00533); assay: KINOMEscan: EGFR; settings: 1000 nM, read-out: Percent Control
Prostanoid EP4 = Prostanoid EP4 (Homo sapiens, UniProt P35408); assay: Eurofins Diversity Panel; settings: hum, Conc. 10 μM
TIE1 = TIE1 (Homo sapiens, UniProt P35590); assay: KINOMEscan: TIE1; settings: 100 nM, read-out: Percent Control
MEK1 = MEK1 (Homo sapiens, UniProt Q02750); assay: KINOMEscan: MEK1; settings: 1000 nM, read-out: Percent Control
CAMK4 = CAMK4 (Homo sapiens, UniProt Q16566); assay: KINOMEscan: CAMK4; settings: 1000 nM, read-out: Percent Control
Sigma σ1 = target: T1, Sigma σ1 (Homo sapiens, UniProt Q99720); assay: Eurofins Diversity Panel; settings: hum
T1 construct: purchased Eurofins

LATS1 = LATS1 (Homo sapiens, UniProt O95835); assay: KINOMEscan: LATS1; settings: 1000 nM, read-out: Percent Control
BUB1 = BUB1 (Homo sapiens, UniProt O43683); assay: KINOMEscan: BUB1; settings: 1000 nM, read-out: Percent Control
MERTK = MERTK (Homo sapiens, UniProt Q12866); assay: KINOMEscan: MERTK; settings: 1000 nM, read-out: Percent Control
Adenosine A3 = Adenosine A3 (Homo sapiens, UniProt P0DMS8); assay: Eurofins Diversity Panel; settings: hum, Conc. 10 μM
FGFR1 = FGFR1 (Homo sapiens, UniProt P11362); assay: KINOMEscan: FGFR1; settings: 1000 nM, read-out: Percent Control
SIK2 = SIK2 (Homo sapiens, UniProt Q9H0K1); assay: KINOMEscan: SIK2; settings: 100 nM, read-out: Percent Control
KIT(L576P) = KIT(L576P) (Homo sapiens, UniProt P10721, L576P); assay: KINOMEscan: KIT(L576P); settings: 1000 nM, read-out: Percent Control
CDK9 = CDK9 (Homo sapiens, UniProt P50750); assay: KINOMEscan: CDK9
Procedure: The structure and synthesis of VIP152 were recently described by Lücking et al.. (Fig. 1A); however, the selectivity of the molecule in cellular systems has yet to be explored. […] We also performed this experiment at 1000 nM, where CDK9 was inhibited at 99%. […] We found a strong concordance between our data and those of Lücking when comparing the most inhibited kinases. Potential off-target effects of VIP152 were next tested in vitro at a concentration of 10 µM for off-target activity against a broad range of receptors, transporters, ion channels, and enzymes (n = 138) using the Eurofins Diversity Panel.
Kinomescan Kinase Profiling Assay
Kinomescan Assay was performed at DiscoverRX and described in Fabian, et al. 2005, Nat.
Biotechnol. In brief, kinases were produced and subsequently tagged with DNA for qPCR detection.
Streptavidin-coated magnetic beads were bound to biotinylated kinase ligands to serve as a solid support.
VIP152 was dissolved in DMSO and tested across a 10 serial threefold dilution set and compared to a test compound and a DMSO control. Kinases which were inhibited by VIP152 would not be bound to the solid-support resulting in decreased substrate for the qPCR reaction. Kinome map was produced via TreeSpot Analysis from DiscoverRX. […]
NanoBRETTM Target Engagement Assay Protocol […]
Complete 20X NanoBRET Tracer Reagent was prepared with Tracer Dilution Buffer and dispensed at a ratio of 1:20 Reagent to cells in the tube. The cell

TLK1 = TLK1 (Homo sapiens, UniProt Q9UKI8); assay: KINOMEscan: TLK1; settings: 100 nM, read-out: Percent Control
ADCK3 = ADCK3 (Homo sapiens, UniProt Q8NI60); assay: KINOMEscan: ADCK3; settings: 1000 nM, read-out: Percent Control
CDKL1 = CDKL1 (Homo sapiens, UniProt Q00532); assay: KINOMEscan: CDKL1; settings: 1000 nM, read-out: Percent Control
MKNK1 = MKNK1 (Homo sapiens, UniProt Q9BUB5); assay: KINOMEscan: MKNK1; settings: 1000 nM, read-out: Percent Control
HIPK4 = HIPK4 (Homo sapiens, UniProt Q8NE63); assay: KINOMEscan: HIPK4; settings: 1000 nM, read-out: Percent Control
CDKL3 = CDKL3 (Homo sapiens, UniProt Q8IVW4); assay: KINOMEscan: CDKL3; settings: 1000 nM, read-out: Percent Control
α2B receptor = target: T2, α2B receptor (Homo sapiens, UniProt P18089); assay: Eurofins Diversity Panel: adrenergic α2B receptor
T2 construct: purchased Eurofins

INSRR = INSRR (Homo sapiens, UniProt P14616); assay: KINOMEscan: INSRR; settings: 1000 nM, read-out: Percent Control
CAMK2A = CAMK2A (Homo sapiens, UniProt Q9UQM7); assay: KINOMEscan: CAMK2A; settings: 1000 nM, read-out: Percent Control
[1] = target: Leukotriene, Cysteinyl CysLT1 (Homo sapiens, UniProt Q9Y271); assay: Eurofins Diversity Panel; settings: hum, Conc. 10 μM

T1 sequence (Q99720 whole entry): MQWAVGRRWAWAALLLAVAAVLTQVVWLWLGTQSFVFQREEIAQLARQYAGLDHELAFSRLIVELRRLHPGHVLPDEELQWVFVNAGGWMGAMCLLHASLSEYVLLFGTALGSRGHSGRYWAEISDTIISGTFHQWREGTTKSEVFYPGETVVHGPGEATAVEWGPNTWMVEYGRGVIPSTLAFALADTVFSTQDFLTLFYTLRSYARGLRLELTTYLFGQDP
Sequence of CDK9 (P50750 whole entry): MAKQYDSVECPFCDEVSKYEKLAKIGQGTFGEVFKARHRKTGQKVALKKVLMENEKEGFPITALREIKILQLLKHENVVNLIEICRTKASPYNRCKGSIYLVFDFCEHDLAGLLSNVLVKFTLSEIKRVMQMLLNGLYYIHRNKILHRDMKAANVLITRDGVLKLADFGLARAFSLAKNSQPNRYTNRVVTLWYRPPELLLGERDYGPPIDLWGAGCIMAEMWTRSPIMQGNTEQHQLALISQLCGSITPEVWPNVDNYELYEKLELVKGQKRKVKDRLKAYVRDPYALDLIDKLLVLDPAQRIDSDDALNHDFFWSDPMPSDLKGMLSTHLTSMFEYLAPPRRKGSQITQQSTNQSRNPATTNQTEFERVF
Sequence of EGFR (P00533 25-1210): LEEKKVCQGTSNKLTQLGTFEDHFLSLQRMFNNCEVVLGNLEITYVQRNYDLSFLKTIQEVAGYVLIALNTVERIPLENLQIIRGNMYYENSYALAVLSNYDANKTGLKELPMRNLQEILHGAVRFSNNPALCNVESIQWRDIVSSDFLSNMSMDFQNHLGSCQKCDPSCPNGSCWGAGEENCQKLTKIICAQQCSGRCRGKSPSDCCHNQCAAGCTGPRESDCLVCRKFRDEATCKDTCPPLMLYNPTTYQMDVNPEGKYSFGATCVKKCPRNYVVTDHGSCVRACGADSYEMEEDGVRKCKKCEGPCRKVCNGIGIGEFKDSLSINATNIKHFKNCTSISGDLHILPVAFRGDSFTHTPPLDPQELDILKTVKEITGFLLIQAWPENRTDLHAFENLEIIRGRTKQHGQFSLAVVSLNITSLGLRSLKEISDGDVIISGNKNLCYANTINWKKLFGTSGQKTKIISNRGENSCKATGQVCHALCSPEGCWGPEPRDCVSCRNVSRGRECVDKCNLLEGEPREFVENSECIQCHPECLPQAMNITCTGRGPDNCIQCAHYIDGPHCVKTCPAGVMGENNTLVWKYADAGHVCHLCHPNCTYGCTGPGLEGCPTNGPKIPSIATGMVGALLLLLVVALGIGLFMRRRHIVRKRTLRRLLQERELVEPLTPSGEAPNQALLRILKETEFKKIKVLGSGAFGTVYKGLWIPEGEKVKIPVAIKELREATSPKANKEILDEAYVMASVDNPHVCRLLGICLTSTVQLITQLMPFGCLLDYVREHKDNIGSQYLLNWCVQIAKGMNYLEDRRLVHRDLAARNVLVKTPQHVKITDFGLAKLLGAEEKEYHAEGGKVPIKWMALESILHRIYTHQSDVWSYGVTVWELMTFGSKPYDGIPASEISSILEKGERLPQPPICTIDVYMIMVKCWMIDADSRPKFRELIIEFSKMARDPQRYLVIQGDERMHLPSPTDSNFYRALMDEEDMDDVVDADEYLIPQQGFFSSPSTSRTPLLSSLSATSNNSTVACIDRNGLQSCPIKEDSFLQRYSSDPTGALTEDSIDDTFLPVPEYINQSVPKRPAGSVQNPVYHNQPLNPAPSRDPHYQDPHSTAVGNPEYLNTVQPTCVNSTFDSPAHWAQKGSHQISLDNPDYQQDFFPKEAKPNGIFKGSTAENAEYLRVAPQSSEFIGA
Sequence of VRK2 (Q86Y07 whole entry): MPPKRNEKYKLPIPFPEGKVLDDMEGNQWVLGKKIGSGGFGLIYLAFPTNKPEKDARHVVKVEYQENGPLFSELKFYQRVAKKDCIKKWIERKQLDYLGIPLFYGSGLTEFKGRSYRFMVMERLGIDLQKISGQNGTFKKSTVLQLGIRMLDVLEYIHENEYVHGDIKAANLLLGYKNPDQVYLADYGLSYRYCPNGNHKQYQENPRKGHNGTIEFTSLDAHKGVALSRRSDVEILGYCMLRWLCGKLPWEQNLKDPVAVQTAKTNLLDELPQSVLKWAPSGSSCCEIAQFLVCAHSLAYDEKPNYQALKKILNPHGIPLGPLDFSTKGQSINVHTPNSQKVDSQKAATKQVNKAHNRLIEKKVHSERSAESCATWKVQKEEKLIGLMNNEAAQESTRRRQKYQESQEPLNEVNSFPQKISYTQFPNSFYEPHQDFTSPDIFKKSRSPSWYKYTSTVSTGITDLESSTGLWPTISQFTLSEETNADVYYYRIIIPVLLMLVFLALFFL
Sequence of ADCK3 (Q8NI60 163-647): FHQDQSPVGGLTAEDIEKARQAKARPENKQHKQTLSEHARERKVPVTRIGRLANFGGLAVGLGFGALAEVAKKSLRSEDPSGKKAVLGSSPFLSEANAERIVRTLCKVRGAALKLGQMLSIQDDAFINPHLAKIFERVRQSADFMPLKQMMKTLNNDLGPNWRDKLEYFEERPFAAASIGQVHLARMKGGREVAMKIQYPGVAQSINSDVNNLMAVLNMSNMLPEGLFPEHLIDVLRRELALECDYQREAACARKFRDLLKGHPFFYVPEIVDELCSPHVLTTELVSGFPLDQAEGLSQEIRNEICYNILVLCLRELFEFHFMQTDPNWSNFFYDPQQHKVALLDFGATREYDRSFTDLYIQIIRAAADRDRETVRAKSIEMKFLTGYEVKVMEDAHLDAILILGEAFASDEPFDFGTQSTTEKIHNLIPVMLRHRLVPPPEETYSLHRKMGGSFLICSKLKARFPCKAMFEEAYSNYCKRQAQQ
Sequence of CDKL3 (Q8IVW4 whole entry): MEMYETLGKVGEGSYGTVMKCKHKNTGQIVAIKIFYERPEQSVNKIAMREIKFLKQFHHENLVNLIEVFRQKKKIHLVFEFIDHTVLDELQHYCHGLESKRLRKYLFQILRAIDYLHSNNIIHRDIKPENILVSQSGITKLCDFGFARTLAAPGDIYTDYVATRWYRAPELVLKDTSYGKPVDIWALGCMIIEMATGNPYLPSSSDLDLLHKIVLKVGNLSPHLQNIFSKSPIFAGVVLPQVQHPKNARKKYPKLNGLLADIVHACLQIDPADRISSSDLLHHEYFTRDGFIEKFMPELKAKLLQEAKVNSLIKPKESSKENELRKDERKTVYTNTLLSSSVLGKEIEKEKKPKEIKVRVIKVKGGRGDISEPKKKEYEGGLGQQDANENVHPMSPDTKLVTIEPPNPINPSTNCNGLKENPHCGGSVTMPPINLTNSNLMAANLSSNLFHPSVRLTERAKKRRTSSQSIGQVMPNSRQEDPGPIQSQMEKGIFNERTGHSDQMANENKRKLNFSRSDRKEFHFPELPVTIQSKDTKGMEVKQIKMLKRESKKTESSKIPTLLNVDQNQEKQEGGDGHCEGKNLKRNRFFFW
Sequence of FGFR1 (P11362 22-822): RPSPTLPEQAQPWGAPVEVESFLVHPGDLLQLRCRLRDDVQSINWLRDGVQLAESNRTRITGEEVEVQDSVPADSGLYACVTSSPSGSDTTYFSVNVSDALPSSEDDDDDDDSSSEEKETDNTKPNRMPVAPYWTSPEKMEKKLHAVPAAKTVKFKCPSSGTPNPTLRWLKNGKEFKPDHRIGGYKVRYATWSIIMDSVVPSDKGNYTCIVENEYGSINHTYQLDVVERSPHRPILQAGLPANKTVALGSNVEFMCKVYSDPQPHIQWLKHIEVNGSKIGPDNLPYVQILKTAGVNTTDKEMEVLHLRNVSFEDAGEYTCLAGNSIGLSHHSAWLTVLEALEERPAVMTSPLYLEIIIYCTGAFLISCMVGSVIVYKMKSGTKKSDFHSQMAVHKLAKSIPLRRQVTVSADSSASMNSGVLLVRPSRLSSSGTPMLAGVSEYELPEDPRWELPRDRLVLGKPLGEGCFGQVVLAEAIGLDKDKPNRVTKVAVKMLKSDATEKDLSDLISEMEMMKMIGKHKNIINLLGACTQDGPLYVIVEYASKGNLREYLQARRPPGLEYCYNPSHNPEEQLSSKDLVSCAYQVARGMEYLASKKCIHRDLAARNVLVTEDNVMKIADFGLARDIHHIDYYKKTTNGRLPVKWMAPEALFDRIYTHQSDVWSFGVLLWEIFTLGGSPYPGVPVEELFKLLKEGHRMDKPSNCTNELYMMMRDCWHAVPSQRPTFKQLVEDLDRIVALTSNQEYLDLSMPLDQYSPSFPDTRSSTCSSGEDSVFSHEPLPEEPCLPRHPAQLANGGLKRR
Sequence of Adenosine A3 (P0DMS8 whole entry): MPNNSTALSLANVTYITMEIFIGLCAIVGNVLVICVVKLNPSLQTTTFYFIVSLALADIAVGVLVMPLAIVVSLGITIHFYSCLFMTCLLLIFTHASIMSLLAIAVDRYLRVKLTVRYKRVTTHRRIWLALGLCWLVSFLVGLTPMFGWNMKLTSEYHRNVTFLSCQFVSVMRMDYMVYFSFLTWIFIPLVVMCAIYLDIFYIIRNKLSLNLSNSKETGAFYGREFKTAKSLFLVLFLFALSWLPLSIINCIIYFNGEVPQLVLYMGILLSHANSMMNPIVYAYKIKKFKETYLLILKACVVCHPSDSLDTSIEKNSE
Sequence of MEK1 (Q02750 whole entry): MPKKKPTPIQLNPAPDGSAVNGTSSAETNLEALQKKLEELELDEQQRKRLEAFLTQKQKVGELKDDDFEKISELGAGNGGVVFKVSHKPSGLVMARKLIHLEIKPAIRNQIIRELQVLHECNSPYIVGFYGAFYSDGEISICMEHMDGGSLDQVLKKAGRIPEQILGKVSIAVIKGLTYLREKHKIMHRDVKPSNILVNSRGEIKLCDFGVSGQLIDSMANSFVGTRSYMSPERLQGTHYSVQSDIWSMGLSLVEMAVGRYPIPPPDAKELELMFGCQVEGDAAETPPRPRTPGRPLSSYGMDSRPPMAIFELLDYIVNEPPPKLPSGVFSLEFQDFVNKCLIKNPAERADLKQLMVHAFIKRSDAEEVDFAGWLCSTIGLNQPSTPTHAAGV

## COc1cc(F)ccc1-c1cc(Nc2cc(CS(C)(=N)=O)ccn2)ncc1F (stereo not drawn) [VIP152]
VRK2
  remaining binding at 0.1 µM: 97%
MST1R
  remaining binding at 1 µM: 70%
GRK7
  remaining binding at 1 µM: 87%
PFPK5(P.falciparum)
  remaining binding at 0.1 µM: 100%
Adrenergic α1A
  inhibition at 10 µM: 34%
STK35
  remaining binding at 0.1 µM: 100%
Opiate κ(OP2, KOP)
  inhibition at 10 µM: 8%
ALK(C1156Y)
  remaining binding at 1 µM: 71%
EGFR
  remaining binding at 1 µM: 81%
Prostanoid EP4
  inhibition at 10 µM: 24%
TIE1
  remaining binding at 0.1 µM: 100%
MEK1
  remaining binding at 1 µM: 85%
CAMK4
  remaining binding at 1 µM: 100%
Sigma σ1
  IC50: 1780 nM
  Ki: 750 nM
  nH: 0.75
Sigma σ1; Conc. 10 μM
  inhibition at 10 µM: 71%
LATS1
  remaining binding at 1 µM: 62%
BUB1
  remaining binding at 1 µM: 7.1%
MERTK
  remaining binding at 1 µM: 58%
Adenosine A3
  inhibition at 10 µM: 43%
FGFR1
  remaining binding at 1 µM: 83%
SIK2
  remaining binding at 0.1 µM: 63%
KIT(L576P)
  remaining binding at 1 µM: 72%
CDK9; 100 nM
  inhibition of CDK9 greater than that of CDK7: 7 fold
CDK9; 100 nM, read-out: inhibition of CDK9 activity compared with control
  inhibition at 0.1 µM: 95.3%
CDK9; 1000 nM
  inhibition at 1 µM: 99%
CDK9; CDK9, 100 nM, read-out: Percent Control
  remaining binding at 0.1 µM: 4.7%
CDK9; CDK9, 1000 nM, read-out: Percent Control
  remaining binding at 1 µM: 1%
TLK1
  remaining binding at 0.1 µM: 98%
ADCK3
  remaining binding at 1 µM: 97%
CDKL1
  remaining binding at 1 µM: 63%
MKNK1
  remaining binding at 1 µM: 98%
HIPK4
  remaining binding at 1 µM: 68%
CDKL3
  remaining binding at 1 µM: 53%
α2B receptor
  IC50: 1180 nM
INSRR
  remaining binding at 1 µM: 85%
CAMK2A
  remaining binding at 1 µM: 84%
[1]
  inhibition at 10 µM: -22%
